Measurements reported in US6586191B2 (priority 1996, dated 2003).
Peptide text beside a SMILES is read from it.

Legend:
rat GALR1 receptor [1] = target: T1, rat GALR1 receptor (Rattus norvegicus, UniProt Q62805); test: biochemical
T1 sequence (Q62805 1-346): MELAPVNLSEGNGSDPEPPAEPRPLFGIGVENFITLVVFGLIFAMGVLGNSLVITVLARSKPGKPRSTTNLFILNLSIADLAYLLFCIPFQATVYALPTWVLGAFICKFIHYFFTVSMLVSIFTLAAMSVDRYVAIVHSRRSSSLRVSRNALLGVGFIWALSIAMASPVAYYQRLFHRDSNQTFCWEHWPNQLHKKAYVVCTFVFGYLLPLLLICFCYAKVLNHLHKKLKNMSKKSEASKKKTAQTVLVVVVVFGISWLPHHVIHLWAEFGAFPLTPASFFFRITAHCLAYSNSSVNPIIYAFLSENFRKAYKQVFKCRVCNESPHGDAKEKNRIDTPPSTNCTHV

rat GALR1 receptor [2] = target: T1, rat GALR1 receptor; assay type: cell-based; design: expressed in transfected cells; host or cells: COS-7 (transient); details: for fold less potent than porcine galanin in the rat GalR1 cAMP assay: LM(tk-) rat GALR1
rat GALR2 receptor [3] = target: T2, rat GALR2 receptor (Rattus norvegicus, UniProt O08726); test: arachidonic acid release in CHO cells stably transfected with rat GALR2 (C-rGalR2-79); assay type: cell-based; design: expressed in transfected cells
T2 sequence (O08726 1-372): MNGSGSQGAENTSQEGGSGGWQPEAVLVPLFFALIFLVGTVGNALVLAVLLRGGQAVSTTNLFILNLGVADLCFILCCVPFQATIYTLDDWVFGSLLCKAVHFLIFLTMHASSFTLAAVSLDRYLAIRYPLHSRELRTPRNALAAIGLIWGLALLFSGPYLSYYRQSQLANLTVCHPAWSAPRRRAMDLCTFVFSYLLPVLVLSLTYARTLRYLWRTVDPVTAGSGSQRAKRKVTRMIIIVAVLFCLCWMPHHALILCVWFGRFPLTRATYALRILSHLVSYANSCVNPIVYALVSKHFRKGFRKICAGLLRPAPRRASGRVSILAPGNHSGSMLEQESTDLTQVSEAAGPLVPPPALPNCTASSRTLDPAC
Procedure: The labeled cells were washed three times with 200 ul HAM's F-12. The wells were then filled with medium (200 uL) and the assay was initiated with the addition of peptides or buffer (22 uL). Cells were incubated for 30 min at 37° C., 5% CO2. Supernatants were transferred to a microtiter plate and evaporated to dryness at 75° C. in a vacuum oven. Samples were then dissolved and resuspended in 25 uL distilled water. Scintillant (300 uL) was added to each well and samples were counted for ^3H in a Trilux plate reader. Data were analyzed using nonlinear regression and statistical techniques available in the GraphPAD Prism package (San Diego, Calif.).

human GALR2 receptor = target: T3, human GALR2 receptor (Homo sapiens, UniProt O43603); test: MAP kinase phosphorylation (western blot) in CHO cells expressing human GALR2; assay type: cell-based; details: CHO human GALR2, 10 minutes, human galanin (10 μM)
T3 construct: To obtain a full-length hGALR2 clone, superpools of a human heart cDNA library were screened by PCR; expressed in transfected cells
T3 sequence (O43603 1-387): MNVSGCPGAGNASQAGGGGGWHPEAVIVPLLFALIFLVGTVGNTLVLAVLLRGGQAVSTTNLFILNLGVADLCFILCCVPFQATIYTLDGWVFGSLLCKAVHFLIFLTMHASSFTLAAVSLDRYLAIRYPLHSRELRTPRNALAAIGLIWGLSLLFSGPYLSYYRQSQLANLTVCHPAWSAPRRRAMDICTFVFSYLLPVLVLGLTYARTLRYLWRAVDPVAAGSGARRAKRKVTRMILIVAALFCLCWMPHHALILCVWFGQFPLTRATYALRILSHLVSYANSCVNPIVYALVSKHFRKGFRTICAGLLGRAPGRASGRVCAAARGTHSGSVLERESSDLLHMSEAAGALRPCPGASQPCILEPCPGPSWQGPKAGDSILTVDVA
Procedure: (§1) CHO cells expressing either the rat GALR2 receptor or the human GALR2 receptor were plated at ˜50% confluence into well-plates and grown in culture with fetal bovine serum reduced to 0.5% for 2 days. Fresh medium was exchanged for old and then aspirated after 2 hrs. […] Cells were washed with phosphate buffered saline and lysed in 100 uL Laemmli sample buffer (Bio-Rad) containing 5% β-mercaptoethanol. Cell lysate was scraped off the plate, transferred to a microfuge tube on ice, and sonicated for 10-15 seconds. Samples were heated at 100° C. for 3-5 minutes. Insoluble material was collected by centrifugation at 10,000×g for 5 min. Supernatant (20 μL/lane) was loaded onto a 4-20% polyacrylamide Bio-Rad Ready-Gel (10×10 cm) together with a phospho-MAP kinase protein standard (New England BioLabs) and molecular weight markers. […] The phospho-MAP kinase complex was detected by chemiluminescence using Lumiglow reagent (New England BioLabs) and Kodak X-Omat film, with exposure times ranging from 10 to 120 seconds.
(§2) Another functional assay relies on the fact that MAP kinase phosphorylation precedes the activation of phospholipase A2. We tested whether galanin-dependent activation of GALR2 could be monitored by changes in MAP kinase phosphorylation. […]

rat GALR2 receptor [4] = target: T2, rat GALR2 receptor; test: MAP kinase phosphorylation (western blot) in CHO cells expressing rat GALR2; assay type: cell-based; design: expressed in transfected cells; details: CHO rat GALR2, 10 minutes, human galanin (10 μM)
Procedure: as §1, §2

[5] = tested on: galanin binding sites in brain, spinal cord, pancreatic islets and cell lines, gastrointestinal smooth muscle; details: read-out: affinity of high-affinity galanin binding sites; several mammalian species and tissues; cited from earlier work
[6] = tested on: [125I]galanin binding sites in rat brain; test: galanin receptor autoradiography, displacement of [125I]galanin from rat brain tissue sections; details: 5 μM
Procedure: Male Sprague-Dawley rats (Charles River, Wilmington, Mass.) were euthanized using CO2, decapitated, and their brains immediately removed and frozen on dry ice. Tissue sections were cut at 20 μm using a cryostat and thaw mounted onto gelatin coated slides. Tissues were preincubated in two 10 minute changes of 50 mM Tris-HCl buffer pH 7.4, containing 5 mM MgSO4 and 2 mM EGTA (Sigma). […] After incubation, tissues were dipped twice in ice-cold Tris-HCl buffer (40° C.), followed by a 5 minute wash in ice-cold Tris-HCl buffer (4° C.), then dipped twice in ice-cold deionized water to remove the salts. Sections were placed in X-ray cassettes and apposed to Dupont Cronex MRF 34 Film for 5 days. Films were developed using a Kodak M35A Processor.

rat GALR2 receptor [7] = target: T2, rat GALR2 receptor; test: voltage clamp currents in Xenopus oocytes injected with rGalR2 mRNA; assay type: cell-based; design: expressed in transfected cells; details: 100-1000 nM, oocytes injected with 5-50 pg rGalR2 mRNA, holding potential -80 mV
rat GALR2 receptor [8] = target: T2, rat GALR2 receptor; test: GTPgamma35S binding to membranes of cells transfected with rat GalR2; assay type: biochemical; design: expressed in transfected cells; details: 1 μM peptide, n=3
Procedure: Membranes from cells transfected with the rat GalR2 receptor were suspended in assay buffer (50 mM Tris, 100 mM NaCl, 5 mM MgCl2, pH 7.4) supplemented with 0.1% BSA, 0.1% bacitracin and 10 μM GDP. Membranes were incubated on ice for 20 minutes, transferred to a 96-well Millipore microtiter GF/C filter plate and mixed with GTPγ^35S (250,000 cpm/sample, specific activity ˜1000 Ci/mmol) plus or minus GTPγS (final concentration=100 μM). Final membrane protein concentration=90 μg/mL. […] Samples collected in the filter plate were treated with scintillant and counted for ^35S in a Trilux (Wallac) liquid scintillation counter.
The signal transduction pathway outlined for rat GalR2 allows for the development of functional assays other than inositol phosphate, calcium, and arachidonic acid determination. One such assay relies on the fact that binding of GTP to a G-protein precedes agonist-dependent activation of phospholipase C. we examined whether galanin-dependent activation of GALR2 could be monitored by the binding of GTPγ^35S to membranes from stably transfected cells.

rat GALR2 receptor [9] = target: T2, rat GALR2 receptor; test: intracellular calcium mobilization (Fura-2) in cells transfected with rat GALR2; assay type: cell-based; design: expressed in transfected cells
Procedure: The intracellular free calcium concentration may be measured by microspectroflourometry using the fluorescent indicator dye Fura-2/AM (Bush et al. 1991). Stably transfected cells are seeded onto a 35 mm culture dish containing a glass coverslip insert. Cells are washed with HBS and loaded with 100 μL of Fura-2/AM (10 μM) for 20 to 40 min. After washing with HBS to remove the Fura-2/AM solution, cells are equilibrated in HBS for 10 to 20 min. Cells are then visualized under the 40× objective of a Leitz Fluovert FS microscope and fluorescence emission is determined at 510 nm with excitation wavelengths alternating between […]. Raw fluorescence data are converted to calcium concentrations using standard calcium concentration curves and software analysis techniques.

## CC(C)C[C@H](NC(=O)[C@H](CC(C)C)NC(=O)[C@@H](Cc1c[nH]c2ccccc12)NC(=O)[C@H](Cc1ccccc1)NC(=O)[C@@H](Cc1c[nH]c2ccccc12)NC(=O)[C@H](CCC(N)=O)NC(=O)[C@H](CCC(N)=O)NC(=O)[C@@H]1CCCN1C(=O)[C@H](CCCCN)NC(=O)[C@@H]1CCCN1C(=O)[C@@H](CCCNC(=N)N)NC(=O)[C@@H]1CCCN1C(=O)CNC(=O)[C@H](CC(C)C)NC(=O)[C@H](CC(C)C)NC(=O)[C@H](Cc1ccc(O)cc1)NC(=O)CNC(=O)[C@H](C)NC(=O)[C@H](CO)NC(=O)[C@H](CC(N)=O)NC(=O)[C@H](CC(C)C)NC(=O)[C@@H](NC(=O)[C@H](Cc1c[nH]c2ccccc12)NC(=O)CN)[C@@H](C)O)C(N)=O [Peptide C7, C7] (HELM PEPTIDE1{G.W.T.L.N.S.A.G.Y.L.L.G.P.[dR].P.K.P.Q.Q.[dW].F.[dW].L.L.[am]}$$$$V2.0; N-terminus and C-terminus assumed)
Rat GALR1 receptor [1]
  Ki: 16.2 nM
Rat GALR1 receptor [2]; read-out: LM(tk-) Rat GALR1 cAMP assay EC50
  EC50: 0.52 nM

## CC[C@H](C)[C@H](NC(=O)[C@H](C)NC(=O)[C@H](Cc1c[nH]cn1)NC(=O)[C@@H]1CCCN1C(=O)CNC(=O)[C@H](CC(C)C)NC(=O)[C@H](CC(C)C)NC(=O)[C@H](Cc1ccc(O)cc1)NC(=O)CNC(=O)[C@H](C)NC(=O)[C@H](CO)NC(=O)[C@H](CC(N)=O)NC(=O)[C@H](CC(C)C)NC(=O)[C@@H](NC(=O)[C@H](Cc1c[nH]c2ccccc12)NC(=O)CNC(=O)[C@H](CCCNC(=N)N)NC(=O)[C@H](CCCCN)NC(=O)[C@H](CCC(=O)O)NC(=O)[C@H](CCCCN)NC(=O)[C@@H](NC(=O)[C@@H]1CCCN1C(=O)[C@@H](N)CO)C(C)C)[C@@H](C)O)C(=O)N[C@@H](CC(=O)O)C(=O)N[C@@H](CC(N)=O)C(=O)N[C@@H](Cc1c[nH]cn1)C(=O)N[C@@H](CCCNC(=N)N)C(=O)N[C@@H](CO)C(=O)N[C@@H](Cc1ccccc1)C(=O)N[C@@H](Cc1c[nH]cn1)C(=O)N[C@@H](CC(=O)O)C(=O)N[C@@H](CCCCN)C(=O)N[C@@H](Cc1ccc(O)cc1)C(=O)NCC(=O)N[C@@H](CC(C)C)C(=O)N[C@@H](C)C(N)=O [porcine galanin (−7) to (+29)]
Rat GALR2 receptor [3]
  fold less potent than porcine galanin in the rat GalR2 arachidonic acid assay: 3 fold
Rat GALR1 receptor [2]
  fold less potent than porcine galanin in the rat GalR1 cAMP assay: 350 fold

## CC[C@H](C)[C@H](NC(=O)[C@H](C)NC(=O)[C@H](Cc1c[nH]cn1)NC(=O)[C@@H]1CCCN1C(=O)CNC(=O)[C@H](CC(C)C)NC(=O)[C@H](CC(C)C)NC(=O)[C@H](Cc1ccc(O)cc1)NC(=O)CNC(=O)[C@H](C)NC(=O)[C@H](CO)NC(=O)[C@H](CC(N)=O)NC(=O)[C@H](CC(C)C)NC(=O)[C@@H](NC(=O)[C@H](Cc1c[nH]c2ccccc12)NC(=O)CNC(=O)[C@H](CCCNC(=N)N)NC(=O)[C@H](CCCCN)NC(=O)[C@H](CCC(=O)O)NC(=O)[C@H](CCCCN)NC(=O)[C@@H](NC(=O)[C@@H]1CCCN1C(=O)[C@H](CO)NC(=O)CNC(=O)[C@@H](N)CC(C)C)C(C)C)[C@@H](C)O)C(=O)N[C@@H](CC(=O)O)C(=O)N[C@@H](CC(N)=O)C(=O)N[C@@H](Cc1c[nH]cn1)C(=O)N[C@@H](CCCNC(=N)N)C(=O)N[C@@H](CO)C(=O)N[C@@H](Cc1ccccc1)C(=O)N[C@@H](Cc1c[nH]cn1)C(=O)N[C@@H](CC(=O)O)C(=O)N[C@@H](CCCCN)C(=O)N[C@@H](Cc1ccc(O)cc1)C(=O)NCC(=O)N[C@@H](CC(C)C)C(=O)N[C@@H](C)C(N)=O [porcine galanin (−9) to (+29)]
Rat GALR2 receptor [3]
  fold less potent than porcine galanin in the rat GalR2 arachidonic acid assay: 2 fold
Rat GALR1 receptor [2]
  fold less potent than porcine galanin in the rat GalR1 cAMP assay: 400 fold

## Human galanin
Human GALR2 receptor
  phosphorylated MAP kinase levels: increase
Rat GALR2 receptor [4]
  phosphorylated MAP kinase levels: increase

## [^125I]porcine galanin
[5]
  Kd: 0.5 to 1 nM

## porcine galanin (1-29)
[6]
  displacement of [125I]galanin binding from rat brain tissue sections: complete displacement
Rat GALR2 receptor [7]
  activation of rapid inward currents (oocytes responding): 36 of 46
Rat GALR2 receptor [8]; C-rGALR2-79 membranes, without peptide 8,014±113 cpm
  binding of GTPγ35S in presence of peptide: 10,292±104 cpm
Rat GALR2 receptor [8]; L-rGalR2I-4 membranes (intronless), without peptide 27,545±504 cpm
  binding of GTPγ35S in presence of peptide: 29,011±526 cpm
Rat GALR2 receptor [9]; COS-7 cells transfected with rat GALR2 cDNA
  effect on intracellular calcium levels: no effect

## rat galanin
Rat GALR2 receptor [9]; 1 μM peptide, C-rGALR2-79, n=9, not in untransfected cells
  increase of intracellular free [Ca+2] (Δ[Ca+2]): 310 ± 70 nM
